Laboratory results from article PMC7185459 (Antiviral Research, 2015).
Where two headings read alike, the source gives them in different places.

Experiments:
[1] = test system: hRSV strain Long; conditions: HEp-2 cells
[2] = test system: hRSV strain Long; test: microbe, parasite or virus in culture; conditions: human respiratory syncytial virus, HEp-2, 96 h
[3] = test system: SRI 29365-resistant mutant hRSV (G protein A63V); type: cell-based, Human respiratory syncytial virus
[4] = test system: human metapneumovirus; test: In vitro CPE assay, human metapneumovirus; type: cell-based
[5] = test system: Nipah virus; type: cell-based
[6] = test system: Venezuelan equine encephalitis virus; type: cell-based
[7] = test system: Dengue 2 virus; test: In vitro CPE assay, Dengue 2 virus; type: cell-based
[8] = test system: human influenza virus; test: In vitro CPE assay, human influenza virus; type: cell-based
[9] = test system: SARS CoV; type: cell-based
[10] = test system: RSV/A/Tracy; type: in vivo; conditions: cotton rat, intraperitoneal at -1, +6, +24 h, vs vehicle, day +4
[11] = test system: hRSV strain Long; conditions: A549 cells
[12] = physchem
[13] = physchem; remark: listed apart in the source
[14] = test system: hRSV strain Long; test: microbe, parasite or virus in culture; conditions: human respiratory syncytial virus, A549

Row | Structure (SMILES) | SI (CC50/EC50) [1] | EC50 [2] [nM] | resistance of mutant virus relative to wt virus EC50 [3] [fold] | reduction in CPE due to antiviral activity [4] | reduction in CPE due to antiviral activity [5] | reduction in CPE due to antiviral activity [6] | reduction in CPE due to antiviral activity [7] | reduction in CPE due to antiviral activity [8] | reduction in CPE due to antiviral activity [9] | body weight [10] | lung lobe weight [10] | SI (CC50/EC50) ([1]; listed as 2) | SI (CC50/EC50) [11] | solubility [12] [µM] | half-life [13] [days] | EC50 [14] [nM]
1 | c1csc(-c2nn3c(Cn4cnc5ccccc54)nnc3s2)c1 [Compound 1, 1-[6-(2-thienyl)[1,2,4]triazolo[3,4-b][1,3,4]thiadiazol-3-yl]methyl-1H-benzimidazole] | 391 | 230 | – | – | – | – | – | – | – | – | – | – | – | – | – | –
2 | c1coc(-c2nn3c(Cn4cnc5ccccc54)nnc3s2)c1 [SRI 29365, 1-[6-(2-furyl)[1,2,4]triazolo[3,4-b][1,3,4]thiadiazol-3-yl]methyl-1H-benzimidazole] | – | – | > 100 | No significant reduction in CPE | No significant reduction in CPE | No significant reduction in CPE | No significant reduction in CPE | No significant reduction in CPE | No significant reduction in CPE | no significant difference | no significant difference | 83 | > 83 | < 400 | > 2.5 | 1200
